Where two headings read alike, the source gives them in different places.
How the values were obtained:
[1] = target: GGTase I (substrate K-Ras4B) (Homo sapiens, UniProt P49354+P53609); test: GGTase I filter-binding assay with K-Ras4B as substrate; type: biochemical; conditions: read-out: % activity of GGTase I for protein K-Ras4B in the presence of the compound
Protocol: (§1) The pilot library was screened for inhibitors of protein geranylgeranyltransferase type I. Protein prenyltransferase assays were carried out by using filter binding. Two different substrates, RhoA and K-Ras4B, were used for the assay. RhoA ends with the CaaL motif and is an exclusive substrate for GGTase I, while K-Ras4B ends with the CaaX motif and is modified by both GGTase I and FTase.
(§2) The % activity of GGTase I was determined as follows: a working solution that contained each compound in DMSO at the concentration of 1 mM was prepared. The working solution was added to GGTase I reaction mixture so that the final concentration of the compound is 50 μM. GGTase I activity was assayed by incubating [^3H]GGPP with K-Ras4B or RhoA protein in the presence of GGTase I and examining radioactivity incorporated into the substrate protein by spotting onto a filter paper. After washing with TCA, ethanol and acetone, the radioactivity retained on the filter was determined by the use of a scintillation counter. GGTase I activity in the presence of DMSO was taken as a 100% value and the activity in the presence of the compound was shown as percent activity compared with the 100% value. […] For 6-aryl-4-mercapto-N-sulfonyl-piperidine-3-carboxylic acid 11 the 4-mercapto substituent appeared critical to endowing GGTase inhibitory activity. […] 4-Chlorobenzylthio substituent was the next best; 12 compounds out of 21 containing the 4-chlorobenzylthio moiety were active. 4-Benzylthio substituent was also good; 7 piperidines out of 21 bearing 4-benzylthio group were active. […] 19 imines (C15>C12=C41>C40>C01=C11>C05=C10=C30=C35=C37=C38>C02, C03, C04, C06, C39=C43) out of 21 appeared in the GGTIs. […] This corresponds to 47 6-aryl-4-mercapto-N-sulfonyl-piperidine-3-carboxylic acids out of 357 compounds.
(§3) A collection of 138 heterocycles was screened for their ability to inhibit the activity of human GGTase-I to geranylgeranylate K-Ras4B or RhoA. Purified GGTase-1 was incubated with its substrate protein K-Ras4B or RhoA, [^3H]GGPP, and the 138 compounds. After 30 min, the degree of incorporation of tritiated geranylgeranyl groups was measured using a scintillation counter.

[2] = target: GGTase I (substrate RhoA) (Homo sapiens, UniProt P49354+P53609); test: GGTase I filter-binding assay with RhoA as substrate; type: biochemical; conditions: for activity at 50 µM: read-out: % activity of GGTase I for protein RhoA in the presence of the compound; for IC50: FIG. 15, read-out: IC50 for the inhibition of GGTase I using RhoA as a substrate
Protocol: as §1, §2, §3
(§4) The GGTase-I assay was carried out using RhoA as a substrate protein, GGTase-I (JENA Bioscience) and [3H]geranylgeranyl pyrophosphate. Incubation was for 30 min at 37 C. GGTase-H (or RabGGTase) assay was carried out using YPT1 as a substrate protein, GGTase-H (Calbiochem, San Diego, Calif.) plus REP1 (Calbiochem) and [3H]geranylgeranyl pyrophosphate. Incubation was for 30 min at 37 C. FIGS. 20D-20F show the three dimensional structure of GGTase I (D), FTsse (E) and GGTase II (F) which can be obtained from X-ray diffraction studies of protein crystals.

[3] = target: T1, protein farnesyltransferase (FTase) (Rattus norvegicus, UniProt Q02293+Q04631); test: Protein farnesyltransferase assay with K-Ras4B and [3H]FPP; type: biochemical; conditions: for inhibition of FTase activity: FIG. 16, concentration increased to 100 μM
T1 construct: purchased JENA Bioscience
Excerpt: To further characterize the pilot library, inhibitors of protein farnesyltransferase were identified. This was accomplished by using K-Ras4B as a substrate protein, tritiated farnesylpyrophosphate ([^3H]FPP) and protein farnesyltransferase. See Finegold, A. A., Johnson, D. I., Farnsworth, C. C., Gelb, M. H., Judd, S. R., Glomset, J. A. and Tamanoi, F. (1991) Protein geranylgeranyltransferase of Saccharomyces cerevisiae is specific for Cys-Xaa-Xaa-Leu motif and requires the CDC43 gene product but not the DPRI gene product. Proc. Natl. Acad. Sci. USA 88, 4448-4452. […] On the other hand, the structure of the compounds P1-F11, P2-B7 and P2-E9 resemble those of GGTIs. The FTI P1-F11 resembles the GGTI P1-F10, while the FTI P2-B7 resembles the GGTI P2-C10. The FTI P2-E9 is similar to the GGTI P2-G3. Similarity of some GGTI and FTI compounds may point to common structural features between the two closely related enzymes. As described before, FTase and GGTase I have similar three-dimensional structures and a shared alpha subunit. On the other hand, FTase specific inhibitors may recognize a region(s) that is different between the two enzymes.
Varying concentrations of the two compounds were added to each enzyme reaction. The FTase (protein farnesyltransferase) assay was carried out using K-Ras4B as a substrate protein, FTase (JENA Bioscience, San Diego, Calif.) and […] pyrophosphate. Incubation was for 30 min at 37 C.

GGTase I = GGTase I (Homo sapiens, UniProt P49354+P53609); test: GGTase I assay, substrate not specified or K-Ras4B and RhoA compared; type: biochemical; conditions: for substrate preference of GGTase I inhibition (RhoA vs K-Ras4B), known GGTIs: FIG. 17; for GGTI activity in screen of 138 heterocycles: K-Ras4B or RhoA substrate, 30 min; for inhibition of GGTase I: FIG. 16
Protocol: as §1, §2, §3

GGTase-I = GGTase-I inhibition kinetics, double reciprocal plots; type: biochemical; conditions: varying GGPP with fixed RhoA
Protocol: as §4
The graphs in FIG. 21 show double reciprocal plots obtained from substrate velocity curves for the inhibition of GGTase-I by P3-E5 (left) and P5-H6 (right). The upper figures show varying GGPP concentrations with a fixed RhoA protein concentration were used. The lower figures show varying RhoA protein concentrations with a fixed GGPP concentration was used. The following scale was used to prepare the graphs: Y-axis: 1/v, fmol/min. X-axis: 1/s, mM.

[4] = system: geranylgeranylated Rheb (Rheb-CSVL) in HEK 293 cells; test: Geranylgeranylation of Rheb-CVSL in HEK 293 cells, mobility shift on Western blot; type: cell-based, human; conditions: HEK 293 cells; FIG. 33
Excerpt: Finally, we investigated in vivo effects of compounds 22 (also known as UC-22) and 23 (also known as UC-23). Human embryonic kidney (HEK) 293 cells were transfected with the Rheb-CSVL construct that expresses the geranylgeranylated form of the Rheb protein. Inhibition of the geranylgeranylation of this protein can be detected from a shift in its mobility on SDS polyacrylamide gel; the unprocessed form appears as a slowly migrating band.
Human embryonic kidney (HEK) 293 cells expressing Myc-HA tagged-Rheb-CVSL (upper) or Myc-HA tagged-Rheb-WT (lower) were treated with P3-E5 for 48 hours and then lysed. The cell lysates were run on a SDS polyacrylamide gel and immunoblotted using anti-Myc or anti-Actin antibody. The descriptors P and U indicate processed and unprocessed Rheb, respectively.
Human embryonic kidney (HEK) 293 cells expressing Myc-HA tagged-Rheb-CVSL (upper) or Myc-HA tagged-Rheb-WT (lower) were treated with mP5-H6a (also referred to as mP5-H6), or GGTI-298 for 48 hours and then lysed. Lysates were run on a SDS polyacrylamide gel and immunoblotted with anti-Myc or anti-Actin antibody.

K562 cells = test: Proliferation of K562 cells, cell counting kit-8; type: cell-based, human; conditions: 72 hours; relative to DMSO control
Protocol: K562 cells are a cell line of human erythroleukemia cells. The K562 cells were treated with P3-E5, P5-H6 or GGTI-298 (a known GGTI compound illustrated in FIG. 27) for 72 hours and then cell number was counted using cell counting kit-8 (Dojindo, Gaithersburg, Md.). Cell viability relative to the DMSO control and the known GGTI compound is plotted in FIG. 23.

[5] = 50 μM compound, DMSO = 100%, smaller numbers indicate better inhibition, first number of pair
[6] = 50 μM compound, DMSO = 100%, smaller numbers indicate better inhibition, second number of pair

activity at 50 µM [1, 5] | activity at 50 µM [2, 6] | SMILES | other results
33.1% | 26.7% | O=C(O)C1=CCC(c2ccc(Cl)cc2)N(S(=O)(=O)c2ccc(Cl)cc2)[C@H]1c1cccc(Cl)c1 (stereo partly drawn) [P3-D9] | IC50 [2]: 5 µM; inhibition of FTase activity [3]: no inhibition of FTase activity was observed
 |  | COC(=O)C(CC(C)C)NC(=O)c1ccc(NCc2cnc[nH]2)cc1-c1ccccc1C (stereo not drawn) [GGTI-2166, reference compound] | IC50 [2]: 0.5 µM; substrate preference of GGTase I inhibition (RhoA vs K-Ras4B), known GGTIs (GGTase I): inhibit RhoA-driven GGTase I activity slightly better than K-Ras4B-driven GGTase I activity
13.3% | 5.3% | Cc1ccccc1S(=O)(=O)N1[C@@H](c2ccc(Cl)cc2)C(C(=O)O)=C[C@H]1C(C)(C)C (relative stereo) [P5-H6] | specificity of GGTase I inhibition ([2]; compared with FTase and GGTase-II, varying concentrations, FIGS. 20A-20C): specifically inhibit GGTase I; inhibition of FTase ([3]; at concentrations at which they inhibited GGTase-I by more than 90%): did not inhibit FTase; mode of inhibition of GGTase-I (GGTase-I): compete with a substrate protein but do not compete with GGPP; inhibition of geranylgeranylation of Rheb-CSVL within the cell [4]: inhibit geranylgeranylation within the cell; inhibition of proliferation of K562 cells (K562 cells): inhibit proliferation of K562 cells
 |  | Cc1ccc(S(=O)(=O)N2[C@@H](c3ccccc3)C(C(=O)O)=CC[C@H]2c2ccc(F)cc2)cc1 [compound 2] | GGTI activity in screen of 138 heterocycles (GGTase I): identified as GGTIs
 |  | COC(=O)[C@H](CC(C)C)NC(=O)c1ccc(NC[C@@H](N)CS)cc1-c1cccc2ccccc12 [GGTI-298, reference compound] | IC50 [2]: 1.6 µM; inhibition of GGTase I (GGTase I): inhibits GGTase I; substrate preference of GGTase I inhibition (RhoA vs K-Ras4B), known GGTIs (GGTase I): inhibit RhoA-driven GGTase I activity slightly better than K-Ras4B-driven GGTase I activity; inhibition of FTase activity [3]: little inhibition was observed with FTase
24.9% | 6% | C=CCS[C@H]1[C@@H](C(=O)O)[C@H](c2ccc(Cl)cc2)N(S(=O)(=O)c2ccccc2C)[C@@H]1CCCCCC | 
 |  | CC[C@@H]1C=C(C(=O)O)[C@H](c2ccc(F)cc2)N1S(=O)(=O)c1ccc(C)cc1 [compound 1] | GGTI activity in screen of 138 heterocycles (GGTase I): identified as GGTIs
8.4% | 7.4% | Cc1ccc(C2CC=C(C(=O)O)[C@H](c3cccc(Br)c3)N2S(=O)(=O)c2ccc(Cl)cc2)cc1 (stereo partly drawn) | 
31.9% | 8.2% | Cc1ccc(S(=O)(=O)N2[C@H](CC3CCCC3)[C@@H](SCCC(=O)OC(C)(C)C)[C@@H](C(=O)O)[C@@H]2c2cccc(F)c2)cc1 | 
20.1% | 7.4% | CCCCCC[C@@H]1[C@@H](SC2CCCC2)[C@@H](C(=O)O)[C@H](c2ccc(C#N)cc2)N1S(=O)(=O)c1ccc(C)cc1 | 
 |  | Cn1cncc1CN1C[C@@H](Cc2ccccc2)N(S(=O)(=O)c2cccs2)Cc2cc(C#N)ccc21 [BMS225975, reference compound] | inhibition of GGTase I (GGTase I): does not inhibit GGTase I; inhibition of FTase activity [3]: inhibits FTase
25.5% | 6.5% | CC[C@@H]1[C@@H](Sc2ccc(OC)cc2)[C@@H](C(=O)O)[C@H](c2cccc(Cl)c2)N1S(=O)(=O)c1ccc(C)cc1 | 
9.8% | 7.5% | C=CCS[C@H]1[C@@H](C(=O)O)[C@H](c2ccc(Br)cc2)N(S(=O)(=O)c2ccc(C)cc2)[C@@H]1CCC | 
5.4% | 3% | Cc1ccccc1S(=O)(=O)N1C(c2ccc(Cl)cc2)CC=C(C(=O)O)[C@@H]1c1cccc(F)c1 (stereo partly drawn) | 
 |  | Cc1ccc(S(=O)(=O)N2C(c3ccc(Cl)c(Cl)c3)CC=C(C(=O)O)[C@@H]2c2cccc(Br)c2)cc1 (stereo partly drawn) | activity at 50 µM [1]: 8.6%; activity at 50 µM [2]: 3.2%
28.1% | 5.9% | CC(C)CCS[C@H]1[C@@H](C(=O)O)[C@H](c2ccc(Cl)cc2)N(S(=O)(=O)c2ccccc2)[C@@H]1C(C)C | 
27.4% | 3.5% | CCCC[C@@H]1[C@@H](Sc2ccc(OC)cc2)[C@@H](C(=O)O)[C@H](c2cccc(F)c2)N1S(=O)(=O)c1ccc(C)cc1 | 
21.4% | 9.6% | C=CCS[C@H]1[C@@H](C(=O)O)[C@H](c2ccc(Cl)c(Cl)c2)N(S(=O)(=O)c2ccc(C)cc2)[C@@H]1CCCC | 
21.3% | 9.2% | CCCCCC[C@@H]1[C@@H](Sc2ccc(C)cc2)[C@@H](C(=O)O)[C@H](c2ccc(Cl)c(Cl)c2)N1S(=O)(=O)c1ccc(C)cc1 | 
17% | 15% | Cc1ccc(S(=O)(=O)N2C(c3cccc(Br)c3)CC=C(C(=O)O)[C@@H]2c2cccc(F)c2)cc1 (stereo partly drawn) | 
15.6% | 12.4% | Cc1cccc([C@H]2C(C(=O)O)=CCC(c3ccc(Cl)cc3)N2S(=O)(=O)c2ccccc2C)c1 (stereo partly drawn) | 
23.5% | 7.1% | CCCCCS[C@H]1[C@@H](C(=O)O)[C@H](c2cccc(F)c2)N(S(=O)(=O)c2ccc(C)cc2)[C@@H]1CCCC | 

Source: patent US8093274B2, “Inhibitors of protein prenyltransferases” (The Regents of the University of California, priority 2006, dated 2012)
